Measurements as given in PubChem BioAssay (NCI).
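Growth conditions: 96-well plates. Treatment: test compound, 48 hours, 5 concentrations. Analysis: linear interpolation between bracketing concentrations; unreached endpoints set to highest concentration. GI50: concentration for 50% inhibition of growth. TGI: total growth inhibition.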 Where a SMILES comes first, the peptide text is derived from it. The star is where a group is joined. Fmoc = O=C(OCC1c2ccccc2-c2ccccc21)*; Boc = CC(C)(C)OC(=O)*

Legend:
Assay in all cases: NCI tumour cell line growth inhibition, 48 h
HOP-92 NSCLC = test system: HOP-92 NSCLC
SNB-19 CNS = test system: SNB-19 CNS
COLO 205 colon = test system: COLO 205 colon
MDA-MB-231 breast = test system: MDA-MB-231 breast
UO-31 renal = test system: UO-31 renal
OVCAR-5 ovarian = test system: OVCAR-5 ovarian
SF-539 CNS = test system: SF-539 CNS
HL-60(TB) leukemia = test system: HL-60(TB) leukemia
UACC-62 melanoma = test system: UACC-62 melanoma
ACHN renal = test system: ACHN renal

| Compound | TGI (HOP-92 NSCLC) [µM] | TGI (SNB-19 CNS) [µM] | TGI (COLO 205 colon) [µM] | TGI (MDA-MB-231 breast) [µM] | TGI (UO-31 renal) [µM] | TGI (OVCAR-5 ovarian) [µM] | TGI (SF-539 CNS) [µM] | TGI (HL-60(TB) leukemia) [µM] | TGI (UACC-62 melanoma) [µM] | TGI (ACHN renal) [µM] | GI50 (HOP-92 NSCLC) [µM] | GI50 (SNB-19 CNS) [µM] | GI50 (COLO 205 colon) [µM] | GI50 (MDA-MB-231 breast) [µM] | GI50 (UO-31 renal) [µM] | GI50 (OVCAR-5 ovarian) [µM] | GI50 (SF-539 CNS) [µM] | GI50 (HL-60(TB) leukemia) [µM] | GI50 (UACC-62 melanoma) [µM] | GI50 (ACHN renal) [µM] |
| --- | --- | --- | --- | --- | --- | --- | --- | --- | --- | --- | --- | --- | --- | --- | --- | --- | --- | --- | --- | --- |
| Cc1ccc(S(=O)(=O)N/N=C2\CC3C4CCC3C2C4)cc1 (stereo unspecified) | > 100 | > 100 | > 100 | > 100 | > 100 | > 100 | > 100 | > 100 | > 100 | > 100 |  |  |  |  |  |  |  |  |  |  |
| NC1=CN(Cc2ccccc2)C2=N/C(=C\c3ccco3)C(=O)N12 | > 100 | > 100 | > 100 | > 100 | > 100 | > 100 | > 100 | > 100 | > 100 | > 100 |  |  |  |  |  |  |  |  |  |  |
| N#C/C=C\c1ccc(-c2cc(C(F)(F)F)cc(C(F)(F)F)c2)o1 | 50 | > 100 | > 100 | > 100 | > 100 | > 100 | 26.6 | 41.4 | 62.8 | > 100 |  |  |  |  |  |  |  |  |  |  |
| NC(=O)N/N=C/c1ccccc1O | > 100 | > 100 | > 100 | > 100 | > 100 |  | > 100 | > 100 | > 100 | > 100 |  |  |  |  |  |  |  |  |  |  |
| Cc1ccc(S(=O)(=O)NC(=O)NCC(=O)O)cc1 | > 100 | > 100 | > 100 | > 100 | > 100 | > 100 | > 100 | > 100 | > 100 | > 100 |  |  |  |  |  |  |  |  |  |  |
| COc1ccc2oc3c(ccc[n+]3C)c(=O)c2c1 | > 100 | > 100 | > 100 | > 100 | > 100 | > 100 | > 100 | > 100 | > 100 | > 100 |  |  |  |  |  |  |  |  |  |  |
| N#CCCN(CCC#N)c1ccc(/C=C2\N=C(c3ccccc3)N(c3ccccc3)C2=O)cc1 | > 100 | > 100 | > 100 | > 100 | > 100 | > 100 | > 100 | > 100 | > 100 | > 100 |  |  |  |  |  |  |  |  |  |  |
| COc1cc2c3c4c1OCc1c5c(cc(c1-4)CC3[N+](C)(C)CC2)OCO5 (stereo unspecified) | > 100 | 54 | > 100 | > 100 | > 100 | > 100 | > 96.6 | > 100 | > 100 | > 100 |  |  |  |  |  |  |  |  |  |  |
| COc1ccc(/C=C/C(=O)/C=C(/C=C/c2ccc(OC)c(OC)c2OC)OB(F)F)c(OC)c1OC | > 100 | > 100 | 6.84 | > 100 | 3.65 | > 100 | > 100 | 3.96 | 4.69 |  | 7.46 | 2.35 | 1.94 | 3.1 | 0.96 | 3.3 | 3.11 | 0.469 | 1.47 |  |
| CC(C)(C)OC(=O)NCCCCC(NC(=O)C(Cc1c[nH]c2ccccc12)NC(=O)OCC1c2ccccc2-c2ccccc21)C(=O)O (stereo unspecified) (Fmoc-Trp-Lys(Boc)-OH; configuration not given here) | 67 | > 100 | > 100 | 67.9 | > 100 | > 100 | > 100 | 34 | 42.4 | > 100 |  |  |  |  |  |  |  |  |  |  |
| Cc1ccc(C)c(C(=N)c2ccccc2Cc2ccccc2)c1 | 46.4 | > 100 | 66.9 | 64.2 | > 100 | 98.3 | 33.8 | 43.6 | 33.4 | 35.7 |  |  |  |  |  |  |  |  |  |  |
| CC1(C)N=C(N)N=C(N)N1CCCCc1ccccc1 | > 100 | > 100 | > 51.6 | > 100 | > 100 | > 100 | 32.4 | > 31.1 | > 100 | > 100 |  |  |  |  |  |  |  |  |  |  |
| COc1ccccc1NC1=NCC(C)S1 (stereo unspecified) | > 100 | > 100 | > 100 | > 100 | > 100 | > 100 | > 100 | > 100 | > 100 | > 100 |  |  |  |  |  |  |  |  |  |  |
| CC(=O)Nc1nc(C)c(-c2cc3c(c(S(C)(=O)=O)c2)C(=O)N([C@@H](C)C2CC2)C3)s1 | 64.1 | > 100 | > 100 | 69.6 | > 100 | > 100 | > 100 | > 100 | > 100 | > 100 | 15.9 | 65.5 | 34.9 | 18.6 | 24.8 | 29.9 | 24.2 | 17.5 | 34.8 | 28.3 |
| COc1cc(OC)cc(Oc2nc3c(N)cc(C(F)(F)F)cc3nc2-c2ccccc2)c1 | > 100 | > 100 | 64.3 | 98.7 | > 100 |  | > 100 | 52.4 | > 100 | > 100 |  |  |  |  |  |  |  |  |  |  |
| CCOC(=O)/C=C1\C[C@H](NC(=O)OCc2ccccc2)C(=O)N1CC(=O)OCC | > 100 | > 100 | > 100 | > 100 | > 100 | > 100 | > 100 | > 100 | > 100 | > 100 |  |  |  |  |  |  |  |  |  |  |
